What was measured:
[1] = in vivo; cited from earlier work
[2] = system: EMT-6 cells derived from a murine mammary sarcoma; test: EMT-6 implanted tumor mouse model: PDT with EtNBS with or without timed prolactin (Examples 1-2); assay type: in vivo, Balb/c mice
Description: Adult (6-7 wk old) male Balb/c mice were subcutaneously injected with EMT-6 cells derived from a murine mammary sarcoma (1.7×10^6 cells) on the hind quarter and were divided into four groups (n=10 per group) and treated as follows: Group 1 (D+L) received photodynamic therapy at 14 days after tumor inoculation. Photodynamic therapy consisted of subcutaneously injecting a benzophenothiazine photosensitizer (EtNBS, FIG. 7)(7.5 mg/kg of body weight) and 3 hrs later irradiating the tumor with 652 nm light at a power density of 150 mW/cm2 and a total energy of 100 J/cm^2. Group 2 (PRL) received intraperitoneal ovine prolactin (20 mcg/mouse) at 10 hours after light onset starting at 7 days after tumor inoculation and continuing for 14 days. Group 3 (D+L+PRL) received both PDT (as described above) and prolactin (as described above). Group 4 (CON) remained untreated (control). Fourteen days following PDT tumor volume was determined in all animals.
Example 1 was repeated with different PDT power density and energy characteristics (for groups 2 and 3) which better optimize the PDT effect. […] Under these conditions, tumor “cure” (tumor-free for at least 90 days) of 4-8 mm diameter tumors can be achieved in 70-100% of the cases largely dependent upon the tumor size at the time of PDT. However, if intraperitoneal prolactin administration (20 mcg/mouse/day at 10 hours after light onset) is added to PDT treatment (starting from the day of tumor cell inoculation), then the tumor cure rate is 100%.
The typical response observed using PDT alone with the PDT parameters employed are (in sequence): 1) an inflammation of the photoirradiated spot encompassing the tumor within about 30 minutes which increases to a maximum inflammation at about 3-5 hours; 2) inflammation completely subsides in 48-72 hours leaving noticeable tumor which takes 14 days to regress completely. Eschar formation occurs at 24-48 hours.
At 4-7 days the irradiated area has healed completely. This response cannot be obtained with PDT or prolactin alone.

EMT-6 cells [3] = test: EMT-6 implanted tumor mouse model: PDT with EtNBS with or without bromocriptine (Example 4); assay type: in vivo, Balb/c mice; details: PDT alone (EtNBS 7.5 mg/kg sc, 652 nm, 50 mW/cm2, 100 J/cm^2)
Description: Adult (6-7 wk old) male Balb/c mice are subcutaneously injected with EMT-6 cells (1.7×10^6 cells) on the hind quarter and are divided into four groups (n=10 per group) and are treated as follows: group 1 receives photodynamic therapy (PDT) at 14 days after tumor inoculation. PDT consists of subcutaneously injecting a benzophenothiazine photosensitizer (EtNBS)(7.5 mg/kg of body weight) and 3 hrs later irradiating the tumor with 652 nm light at a power density of 50 mW/cm2 and a total energy of 100 J/cm^2. Group 2 receives intraperitoneal bromocriptine (50 mcg/mouse) at 0 hours after light onset starting at 7 days after tumor inoculation and continuing for 14 days. Group 3 receives both PDT (as described above) and intraperitoneal bromocriptine (as described above). Group 4 remains untreated (control). Fourteen days following PDT tumor volume is determined in all animals.

EMT-6 cells [4] = test: EMT-6 implanted tumor mouse model: PDT with EtNBS with or without melatonin (Example 5); assay type: in vivo, Balb/c mice
Description: Adult (6-7 wk old) male Balb/c mice are injected subcutaneously with EMT-6 cells (1.7×10^6 cells) on the hind quarter and are divided into four groups (n=10 per group) and are treated as follows: group 1 receives photodynamic therapy (PDT) at 14 days after tumor inoculation. PDT consists of subcutaneously injecting a benzophenothiazine photosensitizer (EtNBS)(7.5 mg/kg of body weight) and 3 hrs later irradiating the tumor with 652 nm light at a power density of 50 mW/cm^2 and a total energy of 100 J/cm^2. Group 2 receives intraperitoneal melatonin (8 mg/kg) at 10 hours after light onset starting at 7 days after tumor inoculation and continuing for 14 days. Group 3 receives both PDT (as described above) and intraperitoneal melatonin (as described above). Group 4 remains untreated (control). Fourteen days following PDT tumor volume is determined in all animals.

EMT-6 cells [5] = test: EMT-6 implanted tumor mouse model: PDT with EtNBS with or without bromocriptine and melatonin (Example 6); assay type: in vivo, Balb/c mice
Description: Adult (6-7 wk old) male Balb/c mice are subcutaneously injected with EMT-6 cells (1.7×10^6 cells) on the hind quarter and are divided into four groups (n=10 per group) and are treated as follows: group 1 receives photodynamic therapy (PDT) at 14 days after tumor inoculation. PDT consists of subcutaneously injecting a benzophenothiazine photosensitizer (EtNBS)(7.5 mg/kg of body weight) and 3 hrs later irradiating the tumor with 652 nm light at a power density of 50 mW/cm^2 and a total energy of 100 J/cm^2. Group 2 receives intraperitoneal melatonin (8 mg/kg) at 10 hours after light onset and intraperitoneal bromocriptine (50 mcg/mouse) at 0 hours after light onset starting at 7 days after tumor inoculation and continuing for 14 days. Group 3 receives both PDT (as described above) and intraperitoneal bromocriptine and intraperitoneal melatonin (as described above). Group 4 remains untreated (control). Fourteen days following PDT tumor volume is determined in all animals.

[6] = system: EMT-6 cells derived from a murine mammary sarcoma; test: EMT-6 implanted tumor mouse model: PDT with Dye 4-115 with or without timed prolactin (Example 3); assay type: in vivo, Balb/c mice
Description: Adult (6-7 wk old) male Balb/c mice are subcutaneously injected with EMT-6 cells derived from a murine mammary sarcoma (1.7×10^6 cells) on the hind quarter and are divided into four groups (n=10 per group) and are treated as follows: group 1 receives photodynamic therapy (PDT) at 14 days after tumor inoculation. PDT consists of intravenously injecting a benzophenothiazine photosensitizer (Dye 4-115)(2.5 mg/kg of body weight) and 1 hr later irradiating the tumor with a broad wavelength light source (600-700 nm) at a power density of 50 mW/cm^2 and a total energy of 100 J/cm^2. Group 2 receives intraperitoneal ovine prolactin (20 mcg/mouse) at 10 hours after light onset starting at 7 days after tumor inoculation and continuing for 14 days. Group 3 receives both PDT (as described above) and prolactin (as described above). Group 4 remains untreated (control). Fourteen days following PDT tumor volume is determined in all animals.

tumor burden = test: Timed prolactin injections in tumor bearing mice; assay type: in vivo; details: circadian rhythms synchronized with a defined photoperiod; versus tumor bearing mice without timed prolactin injections
body fat stores = details: cited from earlier work
immune responses = details: timed daily administration within a specific window of time; no effect outside it; cited from earlier work
[7] = PDT alone (EtNBS 7.5 mg/kg sc, 652 nm, 50 mW/cm^2, 100 J/cm^2)
[8] = ip prolactin added to EtNBS PDT
[9] = ip prolactin added to Dye 4-115 PDT

hematoporphyrin [HPD]
dermal photosensitization due to prolonged retention in the skin [1]: can persist for months

CCNc1cc2sc3cc(=[N+](CC)CC)ccc-3nc2c2ccccc12.[Cl-] [EtNBS]
tumor "cure" (tumor-free for at least 90 days) ([2]; PDT alone (EtNBS 7.5 mg/kg sc, 652 nm, 50 mW/cm^2, 180 J), 4-8 mm diameter tumors): 70-100% | onset of inflammation of the photoirradiated spot ([2]; PDT alone (EtNBS)): ≤ 30 min | time for noticeable tumor to regress completely ([2]; PDT alone (EtNBS)): 14 days | time of eschar formation ([2]; PDT alone (EtNBS)): 24 to 48 h | time of maximum inflammation ([2]; PDT alone (EtNBS)): 3 to 5 h | time until inflammation completely subsides ([2]; PDT alone (EtNBS)): 48 to 72 h | tumor volume fourteen days following PDT (EMT-6 cells [3]): significantly reduced | tumor volume fourteen days following PDT (EMT-6 cells [4]; [7]): significantly reduced | tumor volume fourteen days following PDT (EMT-6 cells [5]; [7]): significantly reduced

COc1ccc2[nH]cc(CCNC(C)=O)c2c1 [melatonin]
tumor volume fourteen days following PDT (EMT-6 cells [4]; EtNBS PDT plus ip melatonin): significantly reduced or entirely eradicated | tumor volume fourteen days following PDT (EMT-6 cells [4]; ip melatonin alone, 8 mg/kg at 10 hours after light onset for 14 days): significantly reduced | effect on growth of tumors (EMT-6 cells [4]; mice, melatonin at the time when melatonin levels are peaking in healthy mice): potent inhibitory effect on growth of tumors | tumor volume fourteen days following PDT (EMT-6 cells [5]; EtNBS PDT plus ip bromocriptine and ip melatonin): significantly reduced or entirely eradicated | tumor volume fourteen days following PDT (EMT-6 cells [5]; ip melatonin 8 mg/kg at 10 hours plus ip bromocriptine 50 mcg/mouse at 0 hours after light onset, no PDT): significantly reduced

B1: prolactin: hormone; prolactin enhancer, given as intraperitoneal ovine prolactin (protein, UniProt P01240 31-229, looked up)
Prolactin: TPVCPNGPGNCQVSLRDLFDRAVMVSHYIHNLSSEMFNEFDKRYAQGKGFITMALNSCHTSSLPTPEDKEQAQQTHHEVLMSLILGLLRSWNDPLYHLVTEVRGMKGVPDAILSRAIEIEEENKRLLEGMEMIFGQVIPGAKETEPYPVWSGLPSLQTKDEDARHSAFYNLLHCLRRDSSKIDTYLKLLNCRIIYNNNC
tumor cure rate ([2]; ip prolactin 20 mcg/mouse/day at 10 hours after light onset from day of inoculation, added to EtNBS PDT (50 mW/cm^2, 180 J)): 100% | time at which the irradiated area has healed completely [2, 8]: 4 to 7 days | time to complete tumor eradication [2, 8]: ≤ 24 h | time to severe eschar formation [2, 8]: ≤ 24 h | treated animals exhibiting severe eschar formation [2, 8]: 100% | tumor cure rate ([2]; mouse models, prolactin at the appropriate time interval combined with PDT): ~100% | treated animals exhibiting severe eschar formation ([6]; ip ovine prolactin 20 mcg/mouse at 10 hours after light onset added to Dye 4-115 PDT): 100% | time at which the irradiated area will heal completely [6, 9]: 4 to 7 days | time to complete tumor eradication [6, 9]: ≤ 24 h | time to severe eschar formation [6, 9]: ≤ 24 h | tumor burden (tumor burden): decreased tumor burden | increase in body fat levels (body fat stores; prolactin injections at midday of a 16-hour daily photoperiod): 3 fold | reduction of fat stores (body fat stores; prolactin injections given early in the photoperiod): 50% | effect on immune function (immune responses): immunostimulatory effect

Reference: patent US20040102383A1, “Growth inhibition and eradication of solid tumors using neuroendocrine resetting therapy and photodynamic therapy” (priority 1996, published 2004)
